In PubChem BioAssay (NCI):
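A five-concentration, 48-hour dose response in 96-well plates underlies each endpoint, interpolated linearly between surrounding concentrations. The concentration for full growth arrest is given as TGI.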

What was measured:
Assay in all cases: growth of human tumour cells (NCI), 48 h
RXF 393 renal = system: RXF 393 renal
K-562 leukemia = system: K-562 leukemia
BT-549 breast = system: BT-549 breast
OVCAR-3 ovarian = system: OVCAR-3 ovarian
SK-MEL-28 melanoma = system: SK-MEL-28 melanoma
HS 578T breast = system: HS 578T breast
UO-31 renal = system: UO-31 renal
SK-OV-3 ovarian = system: SK-OV-3 ovarian
SW-620 colon = system: SW-620 colon
NCI/ADR-RES ovarian = system: NCI/ADR-RES ovarian
MALME-3M melanoma = system: MALME-3M melanoma
A498 renal = system: A498 renal
ACHN renal = system: ACHN renal
HCT-15 colon = system: HCT-15 colon
786-0 renal = system: 786-0 renal
SF-268 CNS = system: SF-268 CNS
NCI-H23 lung = system: NCI-H23 lung
HL-60(TB) leukemia = system: HL-60(TB) leukemia
OVCAR-4 ovarian = system: OVCAR-4 ovarian
PC-3 prostate = system: PC-3 prostate
IGROV1 ovarian = system: IGROV1 ovarian
OVCAR-5 ovarian = system: OVCAR-5 ovarian
TK-10 renal = system: TK-10 renal
CAKI-1 renal = system: CAKI-1 renal
SK-MEL-5 melanoma = system: SK-MEL-5 melanoma
MDA-N = system: MDA-N
DU-145 prostate = system: DU-145 prostate
MDA-MB-231 breast = system: MDA-MB-231 breast
MOLT-4 leukemia = system: MOLT-4 leukemia
UACC-257 melanoma = system: UACC-257 melanoma
KM12 colon = system: KM12 colon
NCI-H460 lung = system: NCI-H460 lung
T-47D breast = system: T-47D breast
HT29 colon = system: HT29 colon
A549 NSCLC = system: A549 NSCLC
OVCAR-8 ovarian = system: OVCAR-8 ovarian
HOP-62 NSCLC = system: HOP-62 NSCLC
NCI-H522 lung = system: NCI-H522 lung
HCT-116 colon = system: HCT-116 colon
UACC-62 melanoma = system: UACC-62 melanoma
SNB-75 CNS = system: SNB-75 CNS
U251 CNS = system: U251 CNS
NCI-H226 lung = system: NCI-H226 lung
COLO 205 colon = system: COLO 205 colon
MCF7 breast = system: MCF7 breast
SF-539 CNS = system: SF-539 CNS
SR leukemia = system: SR leukemia
SK-MEL-2 melanoma = system: SK-MEL-2 melanoma
CCRF-CEM leukemia = system: CCRF-CEM leukemia
SF-295 CNS = system: SF-295 CNS
SN12C renal = system: SN12C renal
M14 melanoma = system: M14 melanoma
SNB-19 CNS = system: SNB-19 CNS
HCC-2998 colon = system: HCC-2998 colon
EKVX NSCLC = system: EKVX NSCLC
LOX IMVI melanoma = system: LOX IMVI melanoma
MDA-MB-435 = system: MDA-MB-435
HOP-92 NSCLC = system: HOP-92 NSCLC

Measured: TGI

CCOC(=O)n1c2ccccc2c(=O)n1CCO
not listed: LOX IMVI melanoma | MDA-MB-435 | HOP-92 NSCLC
> 100 µM: all other assays above

Cc1ccc2oc3c(ccc(=O)n3C)c(=O)c2c1
not listed: BT-549 breast | 786-0 renal | MOLT-4 leukemia | UACC-257 melanoma
> 100 µM: all other assays above
